In patent publication US7700644B2, “Isoflavonoid dimers” (Novogen Research Pty Ltd, priority 2005, dated 2010):

What was measured:
[1] = test system: RK-13 (rabbit kidney) cells; assay: Normal cell toxicity, MTT proliferation assay, rabbit kidney cells; assay type: cell-based; details: Oryctolagus cuniculus, 24 hrs
Procedure: (§1) Neonatal foreskin fibroblasts (NFF) were a gift from Dr. Peter Parsons (Queensland Institute of Medical Research). RK-13 (rabbit kidney) cells were obtained from Miller Whalley (Macquarie University). Both cell types were cultured in RPMI supplemented with 10% FCS (CSL, Australia), penicillin (100 U/ml), streptomycin ([…]), L-glutamine (2 mM) and sodium bicarbonate (1.2 g/L), and cultured at 37° C. in a humidified atmosphere of 5% CO2.
(§2) IC50 values were determined for each cell line. Cells were seeded in 96-well plates at an appropriate cell density as determined from growth kinetics analysis. NFFs were cultured for 5 days and RK-13s for 24 hrs in the absence and presence of the test compounds. Cell proliferation was assessed after the addition of 20 μl of 3-4,5 dimethylthiazol-2,5-diphenyl tetrazolium bromide (MTT, 2.5 mg/ml in PBS, Sigma) for 3-4 hrs at 37° C. according to manufacturer's instructions. IC50 values were calculated from semi-log plots of % of control proliferation on the y-axis against log dose on the x-axis.

NCI-H23 (Lung) = assay: In vitro cytotoxicity, MTT proliferation assay, NCI-H23; assay type: cell-based; details: Homo sapiens
Procedure: (§3) The human pancreatic cancer cell line, HPAC (CRL-2119) was routinely cultured in 1:1 mixture DMEM (Sigma) plus Ham's F12 (Sigma) medium containing HEPES (15 mM), insulin (0.002 mg/ml), transferrin (0.005 mg/ml), hydrocortisone, (40 ng/ml), epidermal growth factor (10 ng/ml). The ovarian cancer cell line CP70 was obtained as a gift from Dr. Gil Mor (Yale University) and cultured in a 1:1 mixture DMEM plus Ham's F12 medium, and SKOV-3 was purchased from ATCC and cultured in McCoy's 5a medium. The breast cancer cell line MDA-MB-468 cultured in Leibovitz's L-15 medium.
(§4) All cultures were supplemented with 10% FCS(CSL, Australia), penicillin (100 U/ml), streptomycin ([…]), L-glutamine (2 mM) and sodium bicarbonate (1.2 g/L), and cultured at 37° C. in a humidified atmosphere of 5% CO2. All remaining cell lines were purchased from ATCC (Maryland, USA) except where noted.
as §2, with “NFFs were cultured for 5 days and RK-13s for 24 hrs in the absence and presence of the test compounds.” left out

[2] = test system: Neonatal foreskin fibroblasts (NFF); assay: Normal cell toxicity, MTT proliferation assay, NFF; assay type: cell-based, human; details: Homo sapiens, 120 h; NFF fibroblast, cultured 5 days, MTT
Procedure: as §1, §2
Duplicate cytotoxicity assays against NFF cells were conducted with dehydroequol (DHE), 4,9-dihydroxy-14,15-dimethoxy-12a-(3′,4′-dimethoxyphenyl)-3,10-dimethyl-2,11-dioxa-(1H,12H)-6b,6c,12a,16b-tetrahydronaphtho[1,2-g]chrysene (2) from Example 6.1 and cisplatin.

[3] = test system: human pancreatic cancer cell line, HPAC (CRL-2119); assay: In vitro cytotoxicity, MTT proliferation assay, CRL-2119; assay type: cell-based; details: Homo sapiens, HPAC; Pancreatic CRL-2119
Procedure: as §3, §4, §2

MM200 (Melanoma) = assay: In vitro cytotoxicity, MTT proliferation assay, MM200; assay type: cell-based, human; details: Homo sapiens
Procedure: as §3, §4, §2

HT-29 (Colorectal) = assay: In vitro cytotoxicity, MTT proliferation assay, HT-29; assay type: cell-based, human; details: Homo sapiens; Colorectal HT-29
Procedure: as §3, §4, §2

DU145 (Prostate) = assay: In vitro cytotoxicity, MTT proliferation assay, DU145; assay type: cell-based, human; details: Homo sapiens, DU-145
Procedure: as §3, §4, §2

[4] = test system: breast cancer cell line MDA-MB-468; assay: In vitro cytotoxicity, MTT proliferation assay, MDA-MB-468; assay type: cell-based, human; details: Homo sapiens; Breast MDA-MB-468
Procedure: as §3, §4, §2

MM96L (Melanoma) = assay: In vitro cytotoxicity, MTT proliferation assay, MM96L; assay type: cell-based, human; details: Homo sapiens
Procedure: as §3, §4, §2

NCI-H460 (Lung) = assay: In vitro cytotoxicity, MTT proliferation assay, NCI-H460; assay type: cell-based, human; details: Homo sapiens
Procedure: as §3, §4, §2

MCF-7 (Breast) = assay: In vitro cytotoxicity, MTT proliferation assay, MCF-7; assay type: cell-based, human; details: Homo sapiens, MCF7; Breast MCF-7
Procedure: as §3, §4, §2

HCT-15 (Colorectal) = assay: In vitro cytotoxicity, MTT proliferation assay, HCT-15; assay type: cell-based, human; details: Homo sapiens; Colorectal HCT-15
Procedure: as §3, §4, §2

PC3 (Prostate) = assay: In vitro cytotoxicity, MTT proliferation assay, PC3; assay type: cell-based, human; details: Homo sapiens
Procedure: as §3, §4, §2

[5] = Oral pharmacokinetics in mice; assay type: in vivo, female BALB/c mice; details: female, BALB/c, mouse, blood, 50 mg/kg, oral gavage, read-out: Free concentration in blood
Procedure: 4,9-Dihydroxy-14,15-dimethoxy-12a-(3′,4′-dimethoxyphenyl)-3,10-dimethyl-2,11-dioxa-(1H,12H)-6b,6c,12a,16b-tetrahydronaphtho[1,2-g]chrysene (2) from Example 6.1 was prepared as homogenous suspensions in 1% CMC (m:v, water). The Cpd. 2 formulation was delivered orally by gavage to female BALB/c mice at a dosage of 50 mg/kg. Three animals were allocated to each time point (15 min, 30 min, 1 hr, 4 hr and 24 hr). At each respective time point, animals were euthanased by cervical dislocation and blood collected. Free Cpd.

CCRF-CEM (Leukemic) = assay: In vitro cytotoxicity, MTT proliferation assay, CCRF-CEM; assay type: cell-based; details: Homo sapiens
Procedure: as §3, §4
as §2, with “NFFs were cultured for 5 days and RK-13s for 24 hrs in the absence and presence of the test compounds.” left out

LNCaP (Prostate) = assay: In vitro cytotoxicity, MTT proliferation assay, LNCaP; assay type: cell-based, human; details: Homo sapiens
Procedure: as §3, §4, §2

A2780 (Ovarian) = assay: In vitro cytotoxicity, MTT proliferation assay, A2780; assay type: cell-based, human; details: Homo sapiens
Procedure: as §3, §4, §2

SKOV-3 (Ovarian) = assay: In vitro cytotoxicity, MTT proliferation assay, SKOV-3; assay type: cell-based, human; details: Homo sapiens, SK-OV-3; Ovarian SKOV-3
Procedure: as §3, §4, §2

HTB-138 (Glioma) = assay: In vitro cytotoxicity, MTT proliferation assay, HTB-138; assay type: cell-based, human; details: Homo sapiens; Glioma HTB-138
Procedure: as §3, §4, §2

[6] = test system: ovarian cancer cell line CP70; assay: In vitro cytotoxicity, MTT proliferation assay, CP70; assay type: cell-based, human; details: Homo sapiens
Procedure: as §3, §4, §2

RPMI-8226 (Leukemic) = assay: In vitro cytotoxicity, MTT proliferation assay, RPMI-8226; assay type: cell-based; details: Homo sapiens; Leukemic RPMI-8226
Procedure: as §3, §4
as §2, with “NFFs were cultured for 5 days and RK-13s for 24 hrs in the absence and presence of the test compounds.” left out

**Q.** Which IC50 [1] does the source give for `Oc1ccc(C2=Cc3ccc(O)cc3OC2)cc1` [DHE, 3-(4-hydroxyphenyl)chrom-3-en-7-ol] here?
**A.** > 150 µM

**Q.** And the IC50 (NCI-H23 (Lung))?
**A.** 8.75 ± 7.2 µM

**Q.** And the IC50 [2]?
**A.** > 150 µM

**Q.** What about the IC50 [3] of the same compound?
**A.** 56.6 ± 16.8 µM

**Q.** What about the IC50 (MM200 (Melanoma)) of the same compound?
**A.** 4.8 µM

**Q.** And the IC50 (HT-29 (Colorectal))?
**A.** 50.5 ± 21.9 µM

**Q.** What about the IC50 (DU145 (Prostate)) of the same compound?
**A.** 5.95 ± 1.5 µM

**Q.** What about the IC50 [4] of the same compound?
**A.** 7.9 ± 3.5 µM

**Q.** And the IC50 (MM96L (Melanoma))?
**A.** 4.7 µM

**Q.** What about the IC50 (NCI-H460 (Lung)) of the same compound?
**A.** 10.6 ± 3.8 µM

**Q.** And the IC50 (MCF-7 (Breast))?
**A.** 21.5 ± 13.2 µM

**Q.** What about the IC50 (HCT-15 (Colorectal)) of the same compound?
**A.** 24.4 ± 12.6 µM

**Q.** What about the IC50 (PC3 (Prostate)) of the same compound?
**A.** 9.09 ± 8.12 µM

**Q.** What about the concentration at 15 min ([5]; Time 0.25 (15 min)) of the same compound?
**A.** 3300 nM

**Q.** And the concentration at 30 min ([5]; Time 0.5 (30 min))?
**A.** 2900 nM

**Q.** What about the concentration at 1 h ([5]; Time 1 (1 hr)) of the same compound?
**A.** 1500 nM

**Q.** What about the concentration at 4 h ([5]; Time 4 (4 hr)) of the same compound?
**A.** 1300 nM

**Q.** What about the concentration at 24 h ([5]; Time 24 (24 hr)) of the same compound?
**A.** 150 nM

**Q.** And the IC50 (CCRF-CEM (Leukemic))?
**A.** 1.7 ± 0.68 µM

**Q.** And the IC50 (LNCaP (Prostate))?
**A.** 4.8 ± 3.8 µM

**Q.** And the IC50 (A2780 (Ovarian))?
**A.** 1.7 ± 0.61 µM

**Q.** And the IC50 (SKOV-3 (Ovarian))?
**A.** 21.8 ± 4.65 µM

**Q.** What about the IC50 (HTB-138 (Glioma)) of the same compound?
**A.** 7.35 ± 0.89 µM

**Q.** And the IC50 [6]?
**A.** 1.69 ± 0.62 µM

**Q.** What about the IC50 (RPMI-8226 (Leukemic)) of the same compound?
**A.** 3.72 ± 0.08 µM
